# Earlier results as cited in patent US20040248933A1, “Use of 4-phenyl-substituted tetrahydroisoquinolines in the treatment of pain, migraine headaches and urinary incontinence” (priority 2002, published 2004).
# Test system: nocturnal enuresis patients
# Conditions: patients with nocturnal enuresis following treatment
smiles,measurement,setting,value
"CN(C)CCCN1c2ccccc2CCc2ccccc21 [imipramine, Imipramine]","Enuresis cured, share of patients",,over 50%
same,"Improvements seen, further share of patients",in addition to those cured,15-20%
